According to patent US20090028920A1, “UROLOGICAL DEVICES INCORPORATING COLLAGEN INHIBITORS” (Wake Forest University Health Sciences, priority 2006, published 2009):

What was measured:
[1] = rat, in vivo
Description: HF Analysis in Local Tissues and Serum (in Rat): The tissue specimens were morcellated, incubated for 24 hours in 40 mL of PBS, centrifuged, and a sample was taken for HF concentration analysis via spectrophotometry. Blood was also drawn (1 mL) from the heart post-mortem, added to 5 mL of PBS, centrifuged, and the serum analyzed for HF concentration via spectrophotometry.

[2] = Drug release study of coated stents in PBS (UV spectroscopy at 243 nm); format: physicochemical; conditions: approx. 3 cm coated silicone stents, room temperature, 24-hour intervals
Description: Drug release studies were then performed to determine the amount of halofuginone released by the coated stents, and the timing of drug release. Stents approximately 3 cm in length were coated with halofuginone using our proprietary technique. These stents were then placed in PBS solution at room temperature for 24-hour intervals. After each 24-hour interval, the stents were placed in a new PBS solution, and the previous solution was analyzed for halofuginone concentration using UV spectroscopy (absorption at 243 nm). This process was continued daily until the amount of halofuginone in the PBS dropped to immeasurable levels.

ureter and urethra = conditions: orally administered and locally injected; cited from earlier work
[3] = oral doses of up to 3.5 mg/day; cited from earlier work

In the case of `O=C(CC1NCCCC1O)Cn1cnc2cc(Br)c(Cl)cc2c1=O` (centres unmarked) [halofuginone, 7-bromo-6-chloro-3-[3-(3-hydroxy-2-piperidinyl)-2-oxopropyl]-4(3H)], the “difference between HF levels in serum vs penile tissue” value [1] is reported as “almost a ten-fold difference”, the “duration of sustained release of halofuginone from the stents” value [2] is reported as “approximately 4 days” and the release profile [2] is reported as “large burst release the first 24 hours”. The “collagen deposition and stricture formation” value (ureter and urethra) was “prevent collagen deposition and stricture formation” and the tolerability [3] was “minimal ill effects”.
